The results in this text go back to ChEMBL document CHEMBL4219054, “Induction of apoptosis by pyrazolo[3,4-d]pyridazine derivative in lung cancer cells via disruption of Bcl-2/Bax expression balance” (Bioorg Med Chem, 2018).

In assay [1] the test system is A549. Kind of assay: Induction of apoptosis in human A549 assessed as upregulation of caspase-3 mRNA expression level at 0.067 mM by RT-PCR analysis relative to control. The assay is classed as functional.
The test system of assay [2] is A549. Kind of assay: Cell cycle arrest in human A549 cells assessed as accumulation at G2/M phase at 0.067 mM after 48 hrs by propidium iodide staining-based flow cytometric analysis (reference value: 5.34%). The assay is classed as functional. Background: In flow cytometry, cells or beads pass a laser one at a time.
Another assay concerns WI-38. Kind of assay: Antiproliferative activity against human WI38 cells after 48 hrs by MTT assay. The assay is classed as cell-based. The following applies: WI-38, 48 h. In general terms: Tetrazolium assays rely on reduction of a dye to a coloured formazan, in cell work by metabolically active cells.
The subject of another assay is HepG2. Kind of assay: Antiproliferative activity against human HepG2 cells after 48 hrs by MTT assay. It is filed as functional, cell-based.
For assay [3], the system named is A549. Kind of assay: Induction of apoptosis in human A549 assessed as inhibition of Bcl2 mRNA expression level at 0.067 mM by RT-PCR analysis relative to control. The assay is classed as functional.
A short description of assay [4]: Antiproliferative activity against human HFB4 cells after 48 hrs by MTT assay. It is filed as cell-based.
The test system of assay [5] is A549. The experiment in a line: Induction of apoptosis in human A549 assessed as upregulation of Bax mRNA expression level at 0.067 mM by RT-PCR analysis relative to control. The assay is classed as functional.
The subject of assay [6] is A549. Kind of assay: Induction of apoptosis in human A549 assessed as early apoptotic cells at 0.067 mM after 48 hrs by Annexin-V FITC/propidium iodide staining-based flow cytometric analysis (reference value: 0.36%). The assay is classed as functional.
The subject of assay [7] is A549. Kind of assay: Cell cycle arrest in human A549 cells assessed as accumulation at sub G1 phase at 0.067 mM after 48 hrs by propidium iodide staining-based flow cytometric analysis (reference value: 0.77%). The assay is classed as functional.
The subject of assay [8] is A549. The experiment in a line: Cell cycle arrest in human A549 cells assessed as accumulation at S phase at 0.067 mM after 48 hrs by propidium iodide staining-based flow cytometric analysis (reference value: 27.04%). It is filed as functional.
Assay [9] concerns A549. Kind of assay: Cell cycle arrest in human A549 cells assessed as accumulation at G0/G1 phase at 0.067 mM after 48 hrs by propidium iodide staining-based flow cytometric analysis (reference value: 66.85%). The assay is classed as functional.
Assay [10] relates to A549. Kind of assay: Induction of apoptosis in human A549 assessed as viable cells at 0.067 mM after 48 hrs by Annexin-V FITC/propidium iodide staining-based flow cytometric analysis (reference value: 97.42%). The assay is classed as functional. The conditions noted are these: A549, 48 h, read-out: Activity.
For a further assay, the system named is HCT-116. The experiment in a line: Antiproliferative activity against human HCT116 cells after 48 hrs by MTT assay. The assay is classed as functional, cell-based.
The test system of assay [11] is A549. Kind of assay: Induction of apoptosis in human A549 assessed as upregulation of p53 mRNA expression level at 0.067 mM by RT-PCR analysis relative to control. It is filed as functional.
Assay [12] has as its system A549. The experiment in a line: Induction of apoptosis in human A549 assessed as necrotic cells at 0.067 mM after 48 hrs by Annexin-V FITC/propidium iodide staining-based flow cytometric analysis (reference value: 0.2%). It is filed as functional.
For assay [13], the system named is A549. The experiment in a line: Antiproliferative activity against human A549 cells after 48 hrs by MTT assay. The assay is classed as functional, cell-based.
For assay [14], the system named is A549. Kind of assay: Induction of apoptosis in human A549 assessed as late apoptotic cells at 0.067 mM after 48 hrs by Annexin-V FITC/propidium iodide staining-based flow cytometric analysis (reference value: 0.21%). It is filed as functional.

Consider `O=c1oc2ccc3ccccc3c2cc1-c1n[nH]c(=O)c2nn(-c3ccccc3)cc12`, for which the “fold change (FC)” value stood at 7.19 in the assay with A549 [1], 0.22 with A549 [3], 7.28 in the assay on A549 [5] and 5.08 in the assay with A549 [11]. For the same compound, the Activity with A549 [2] is 15.11%; with HepG2, “Dose-dependent effect”; in the assay on A549 [6], 4.69%; with A549 [7], 11.42%; in the assay with A549 [8], 16.59%; in the assay on A549 [9], 56.88%. In addition, the Activity entry was “Dose-dependent effect” in the assay with HCT-116, 1.36% in the assay on A549 [12], “Dose-dependent effect” with A549 [13] and 5.37% with A549 [14]. For the same compound, the IC50 (commonly the concentration that gives 50% inhibition) stood at 219 µM with WI-38; 115 µM in the assay on HepG2 (HepG2, 48 h); 281 µM in assay [4]; 130 µM with HCT-116 (HCT-116, 48 h); 67 µM with A549 [13] (A549, 48 h). Further, the viability at 67 µM with A549 [10] amounted to 86.9%.
